Entries after “also recorded” stand apart in the source; their conditions may differ.
System: scleroderma lung fibroblasts (SLF)
Assay: Immunocytochemistry and laser confocal microscopy of CSD peptide-treated SLF
Type: cell-based, human
Procedure: (§1) NLF or SLF cultured in 4-well glass chamber slides (Nalge Nunc International, Naperville, Ill.) as previously described (43) were incubated with CSD peptide or scrambled (Scr) peptide, fixed, permeabilized, and stained red with 7-aminoactinomycin D to detect nuclei and green using appropriate primary and secondary antibodies to detect caveolin-1 or ph-ERK. Images were captured by confocal microscopy.
as §1, with “ph-JNK” for “caveolin-1”, “ph-Akt.” for “ph-ERK.”
NLF and SLF were cultured in 4-well glass chamber slides (Nalge Nunc International, Naperville, Ill.) and stained as previously described (43) using the indicated primary antibodies and appropriate secondary antibodies tagged with Alexa Fluoro® 488 (Molecular Probes, Eugene, Oreg.). Nuclei were stained with 7-aminoactinomycin D (Molecular Probes, Eugene, Oreg.). Images were acquired using a Zeiss 510SML Laser Confocal Microscope (excitation S490/20, emission D528/38) fitted with an oil-immersion objective (40×/1.4).

DGIWKASFTTFTVTKYWFYR [CSD peptide]
level of caveolin-1 expression detected by IHC (CSD peptide vs Scr peptide): did not affect
distribution of caveolin-1 staining (CSD peptide vs Scr peptide, particularly in SLF): staining associated with the plasma membrane becoming more prominent
distribution of activated Akt staining (CSD peptide vs control peptide): preferentially decreased perinuclear, nuclear, and cytoplasmic staining while increasing staining associated with the plasma membrane
distribution of activated JNK staining (CSD peptide vs control peptide): preferentially decreased perinuclear staining and increased staining associated with the plasma membrane; also recorded: eliminated the intense punctate cytoplasmic staining
level of activated Akt (IHC) (CSD peptide vs control peptide): decreases
level of activated ERK (IHC) (CSD peptide vs control peptide): decreases
level of activated JNK (IHC) (CSD peptide vs control peptide): decreases
localization of residual activated ERK staining (after CSD peptide): primarily perinuclear and cytoplasmic

From patent publication US8058227B2, “Method of treating fibrosis in a subject in need thereof comprising administering a composition comprising a CSD” (Medical University of South Carolina, priority 2006, dated 2011)
